The record followed here is ChEMBL document CHEMBL3813620, “Discovery of selective inhibitors of tyrosyl-DNA phosphodiesterase 2 by targeting the enzyme DNA-binding cleft” (Bioorg Med Chem Lett, 2016).

For assay [1], the target named is T1, Tyrosyl-DNA phosphodiesterase 2 (Danio rerio, UniProt Q5XJA0).
T1 sequence (Q5XJA0 whole entry): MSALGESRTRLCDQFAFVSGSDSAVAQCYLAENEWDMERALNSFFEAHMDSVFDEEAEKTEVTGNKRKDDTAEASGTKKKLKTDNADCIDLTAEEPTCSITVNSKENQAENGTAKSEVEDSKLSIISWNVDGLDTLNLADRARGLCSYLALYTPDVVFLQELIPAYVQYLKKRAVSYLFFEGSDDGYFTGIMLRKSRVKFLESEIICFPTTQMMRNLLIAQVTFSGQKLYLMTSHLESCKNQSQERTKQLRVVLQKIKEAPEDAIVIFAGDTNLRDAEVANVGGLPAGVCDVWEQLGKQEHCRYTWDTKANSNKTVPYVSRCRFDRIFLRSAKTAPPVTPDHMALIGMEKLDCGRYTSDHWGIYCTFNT
In words: Inhibition of zebra fish recombinant TDP2 using alpha32P-cordycepin-3'-labeled TY19 as substrate after 15 mins by PAGE method.

For assay [2], the target named is T2, Tyrosyl-DNA phosphodiesterase 2 (Homo sapiens, UniProt O95551).
T2 sequence (O95551 whole entry): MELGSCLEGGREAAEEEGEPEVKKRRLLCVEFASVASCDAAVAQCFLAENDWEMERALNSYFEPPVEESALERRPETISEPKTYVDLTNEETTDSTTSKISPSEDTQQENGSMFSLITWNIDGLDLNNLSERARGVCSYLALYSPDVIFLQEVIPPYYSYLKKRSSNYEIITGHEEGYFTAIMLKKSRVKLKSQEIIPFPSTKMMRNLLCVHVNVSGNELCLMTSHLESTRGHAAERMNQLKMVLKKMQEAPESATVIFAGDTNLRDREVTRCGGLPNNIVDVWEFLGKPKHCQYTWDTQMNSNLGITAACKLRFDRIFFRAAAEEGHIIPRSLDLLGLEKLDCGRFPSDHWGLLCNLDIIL
In words: Inhibition of human recombinant TDP2 using alpha32P-cordycepin-3'-labeled TY19 as substrate after 15 mins by PAGE method.

For assay [3], the target named is T3, Tyrosyl-DNA phosphodiesterase 2 (Homo sapiens) (UniProt O95551).
T3 sequence (whole entry): T2 sequence (O95551 whole entry)
In words: Inhibition of endogenous human TDP2 within whole cell extracts from human TDP2-complemented DT40 chicken cells using TY19 DNA as substrate after 15 mins by spectrophotometric analysis.

The target in assay [4] is T4, Tyrosyl-DNA phosphodiesterase 1 (Homo sapiens, UniProt Q9NUW8). In words: Effect on human TDP1 up to 200 uM.
T4 sequence (Q9NUW8 whole entry): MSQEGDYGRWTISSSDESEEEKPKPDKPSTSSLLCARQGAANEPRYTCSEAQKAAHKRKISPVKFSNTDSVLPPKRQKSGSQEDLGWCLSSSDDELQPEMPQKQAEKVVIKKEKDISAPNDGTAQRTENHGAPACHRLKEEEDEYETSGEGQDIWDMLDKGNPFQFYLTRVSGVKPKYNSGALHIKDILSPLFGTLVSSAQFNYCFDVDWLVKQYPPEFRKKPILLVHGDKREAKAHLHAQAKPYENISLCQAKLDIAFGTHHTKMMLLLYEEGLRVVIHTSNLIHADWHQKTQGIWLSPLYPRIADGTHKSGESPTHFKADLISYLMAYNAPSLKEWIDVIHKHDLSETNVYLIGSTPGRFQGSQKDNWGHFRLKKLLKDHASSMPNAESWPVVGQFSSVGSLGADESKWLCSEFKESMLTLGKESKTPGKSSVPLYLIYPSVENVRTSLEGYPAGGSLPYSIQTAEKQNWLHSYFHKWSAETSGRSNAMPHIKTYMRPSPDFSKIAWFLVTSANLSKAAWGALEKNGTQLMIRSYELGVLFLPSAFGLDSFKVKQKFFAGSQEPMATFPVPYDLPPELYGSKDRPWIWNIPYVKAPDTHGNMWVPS
The target in assay [5] is T2, Tyrosyl-DNA phosphodiesterase 2. Nature of the assay: Inhibition of human TDP2.
Assay [6] addresses T5, Tyrosyl-DNA phosphodiesterase 2 (Mus musculus, UniProt Q9JJX7).
T5 sequence (Q9JJX7 whole entry): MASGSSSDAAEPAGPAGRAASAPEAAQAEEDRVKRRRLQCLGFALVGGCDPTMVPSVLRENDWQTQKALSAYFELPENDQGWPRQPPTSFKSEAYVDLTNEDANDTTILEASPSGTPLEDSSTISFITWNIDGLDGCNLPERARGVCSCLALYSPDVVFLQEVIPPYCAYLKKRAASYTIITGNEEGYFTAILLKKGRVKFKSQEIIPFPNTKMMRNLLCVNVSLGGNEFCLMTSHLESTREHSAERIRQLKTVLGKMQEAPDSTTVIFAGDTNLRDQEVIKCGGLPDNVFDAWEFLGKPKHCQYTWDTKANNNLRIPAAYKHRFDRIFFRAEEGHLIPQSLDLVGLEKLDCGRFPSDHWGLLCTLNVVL
Nature of the assay: Inhibition of mouse recombinant TDP2 using alpha32P-cordycepin-3'-labeled TY19 as substrate after 15 mins by PAGE method.

In assay [7] the target is T4, Tyrosyl-DNA phosphodiesterase 1. In words: Inhibition of human recombinant TDP1 using 5'-[32P]-labeled N14Y as substrate after 15 mins by PAGE method.

Active and inactive are the calls of the source. No cut-off for these calls is given here.

For `O=C(NC(CSSCC(NC(=O)c1ccccc1)C(=O)O)C(=O)O)c1ccccc1` (stereo not given), the IC50 was determined as 15 µM in assay [1] and 4.1 µM in assay [2]. The inhibition result in assay [3] was “Active”.

As for `COc1ccc(CC2C(=O)N(c3ccc([N+](=O)[O-])cc3)N=C2C(=O)O)cc1Oc1ccc(F)cc1` (stereo not given), the outcome in assay [4] was inactive. Also, in assay [5], the IC50 worked out at 12 µM.

As to `N#CCCN(CCC#N)c1ccc(/C=C2\C(=O)N(c3ccc(S(=O)(=O)O)cc3)N=C2C(=O)O)cc1`, the IC50 is 15 µM in assay [6], 5.2 µM in assay [1], 3.5 µM in assay [2] and over 111 µM in assay [7]. The inhibition entry in assay [3] is “Active”.

As for `O=C(Cc1ccccc1)NC(CSSCC(NC(=O)Cc1ccccc1)C(=O)O)C(=O)O` (stereo not given), the IC50 in assay [6] is over 111 µM; in assay [1] it was 20 µM; in assay [2], 9 µM; in assay [7], over 111 µM. Moreover, the inhibition result in assay [3] is “Active”.

A word on the IC50: it is the concentration that inhibits the measured activity by half.
